Results: a melting point compilation (Tetko et al.)

Conditions: a range is the spread between reports

Row | SMILES | melting point [°C]
1 | O=S(Cl)Cl | -105 to -104
2 | O=C(O)C(O)c1ccc(Br)cc1 (stereo not drawn) | 117 to 118
3 | O=[N+]([O-])c1cccc([N+](=O)[O-])c1Cl | 86 to 88
4 | NS(=O)(=O)Cc1noc2ccccc12 | 162
5 | O=[N+]([O-])c1cc(Cl)cc(Cl)c1 | 64 to 65.4
6 | CCNc1nc(Cl)nc(NCC)n1 | 226 to 228
7 | CCCCC#N | -96.2 to -96
8 | Brc1ccc(Br)c(Br)c1 | 42 to 44.5
9 | O=C(O)CCCCCCCCCCCCCCCO | 98 to 99
10 | Brc1ccc2c(c1)Cc1ccccc1-2 | 112 to 114
11 | CCC1(c2ccccc2)C(=O)NC(=O)NC1=O | 174 to 176
12 | O=C(O)c1ccc([N+](=O)[O-])c([N+](=O)[O-])c1 | 165 to 166
13 | O=c1[nH]c(=O)n(C2CC(O)C(CO)O2)cc1F (stereo not drawn) | 150
14 | Nc1cccc(N)c1 | 63 to 65
15 | Nc1ccc(/C=C/c2ccc([N+](=O)[O-])cc2)c([N+](=O)[O-])c1 | 198 to 202
16 | CC(C)c1ccc(Cl)cc1 | -12.3 to -12
17 | c1ccc(CNCCNCc2ccccc2)cc1 | 24 to 26
18 | CN(C)c1ccc(C(=O)c2ccc(N(C)C)cc2)cc1 | 175 to 179
19 | Oc1ccccc1F | 15 to 16.1
20 | C(#Cc1ccccc1)c1ccccc1 | 60 to 63
21 | c1ccc(SSc2ccccc2)cc1 | 60 to 62
22 | O=C1C=CC(=O)O1 | 52.8 to 54
23 | C#CC1(O)CCCC1 | 25 to 27
24 | Nn1cnnc1 | 82.5 to 86
25 | O=C(CBr)c1ccc(Br)cc1 | 109 to 111
26 | N#Cc1c[nH]cc1-c1cccc2c1OC(F)(F)O2 | 199
27 | O=[N+]([O-])c1ccc(Cl)c(Cl)c1 | 39 to 43

Row | SMILES | melting point [°C]
28 | Oc1ccc(-c2ccc(O)cc2)cc1 | 278 to 283
29 | NNC(=O)c1ccco1 | 79 to 80
30 | CC(=O)C(C)(C)C | -53 to -52
31 | O=C(O)c1cccs1 | 128 to 130
32 | N#CC(c1ccccc1)c1ccccc1 | 74 to 74.3
33 | Oc1ccccc1 | 40.9 to 42
34 | CC(C)[N+](=O)[O-] | -93 to -91.3
35 | O=[N+]([O-])c1ccc(Cl)c([N+](=O)[O-])c1 | 50 to 53
36 | O=C(O)c1ccc([N+](=O)[O-])cc1Cl | 139 to 142
37 | OCC(O)C1OC2OC(C(Cl)(Cl)Cl)OC2C1O (stereo not drawn) | 183 to 187
38 | c1ccc(CCc2ccccc2)cc1 | 51 to 55
39 | CCCNC(=O)NS(=O)(=O)c1ccc(Cl)cc1 | 128
40 | O=P(O)(O)CCCl | 70 to 74.5
41 | OCc1ccc(CO)cc1 | 118 to 119
42 | O=[N+]([O-])c1cccc(O)c1 | 94 to 98
43 | O=C1CCC(N2C(=O)c3ccccc3C2=O)C(=O)N1 (stereo not drawn) | 270 to 275
44 | Oc1ccc(I)cc1 | 92 to 94
45 | c1ccc2c(c1)sc1ccccc12 | 97 to 99
46 | O=Cc1ccccc1Br | 20 to 22
47 | O=c1cc(-c2ccccc2)oc2c1ccc1ccccc12 | 153 to 158
48 | Nc1ccc(O)c([N+](=O)[O-])c1 | 126 to 129
49 | O=C(O)c1c(F)ccc(F)c1F | 130 to 131
50 | O=S(=O)(c1ccccc1)c1ccc(Cl)cc1 | 92 to 94
51 | ON=C1CCCCC1 | 89 to 90
52 | ClC(Cl)Br | -57 to -55
53 | O=C(C(F)(F)F)C(F)(F)F | -129 to -125
54 | Oc1ccccc1C=Nc1ccccc1 | 47.5 to 51

Row | SMILES | melting point [°C]
55 | O=[N+]([O-])c1ccccc1SSc1ccccc1[N+](=O)[O-] | 194 to 196
56 | N#Cc1cc([N+](=O)[O-])c(Cl)c([N+](=O)[O-])c1 | 141
57 | O=C(C=NO)c1ccccc1 | 127 to 129
58 | Oc1ccc(F)cc1 | 44.5 to 48
59 | O=C(O)COc1cccc(Cl)c1 | 108 to 110
60 | Nc1cc(Cl)ccc1Cl | 48 to 50
61 | CCCCCCCCCCCCCCCCCCCCCCCCCCCCCCCCCCCC | 76 to 76.5
62 | COc1ccc(Cc2nccc3cc(OC)c(OC)cc23)cc1OC | 147 to 148
63 | O=[N+]([O-])c1cccc2cccnc12 | 88 to 90
64 | O=Cc1cc(Cl)ccc1O | 100 to 101
65 | O=[N+]([O-])c1ccc(N=C=S)cc1 | 108 to 111
66 | NNc1c(F)c(F)cc(F)c1F | 89 to 92
67 | NC(=O)c1ccccc1N | 108 to 113
68 | ClCc1cccc(CCl)c1 | 34.2 to 36
69 | Clc1ccc(C(c2ccc(Cl)cc2)C(Cl)(Cl)Cl)cc1 | 108 to 110
70 | OCCN1CCOCC1 | -1.6 to 2
71 | CCCCCl | -123
72 | CC(=O)Nc1ccc2c(c1)Cc1ccccc1-2 | 193 to 194
73 | OCCc1ccc(O)cc1 | 90 to 91
74 | CC(C)C#N | -72 to -71.5
75 | c1ccc(-c2cc3ccccc3[nH]2)cc1 | 190
76 | OCc1cccnc1 | -7 to -6.5
77 | Cc1cccc(C)c1[N+](=O)[O-] | 15 to 16
78 | CCCCCCCCCc1ccc(O)cc1 | 42 to 45
79 | OCc1cc(Cl)cc(Cl)c1 | 78 to 80.5

Results, then the molecule that gave them:

Row | melting point [°C] | SMILES
80 | -143 to -142 | CC1CCCC1
81 | 216 to 218 | CC(C)(C)c1cc(O)c(C(C)(C)C)cc1O
82 | -106 to -105 | C/C=C/C
83 | 48.5 to 53 | CCOC(=O)C(NC=O)C(=O)OCC
84 | -128 to -127 | CCCOCC
85 | 31 to 33 | FC(F)(F)c1ccc(Cl)nc1
86 | -10 to -9.6 | CCCCCCCCCCCC
87 | 186 to 188 | O=C(O)c1cc(Cl)cc(Cl)c1
88 | 82 to 83 | COc1ccc(Cl)cc1N
89 | 28 to 29 | Cc1ccc(Cc2ccc(C)cc2)cc1
90 | 54 to 55 | CN(C)c1ccc(Br)cc1
91 | 2 to 2.1 | CC(C)OC(=O)C=CC(=O)OC(C)C
92 | 12 to 14 | Cc1nc2ccccc2s1
93 | 53 to 54 | CC(=O)Oc1ccc(C(C)=O)cc1
94 | 52 to 54.3 | COC(=O)C(=O)OC
95 | 101 to 103 | CCCCCCCCOc1ccc(C(=O)O)cc1
96 | -48 to -43.8 | CC#N
97 | -44 to -43.5 | OCC(F)(F)F
98 | 38 to 38.5 | COc1cccc([N+](=O)[O-])c1
99 | 92 to 93 | Cc1ccc(CC(=O)O)cc1
100 | 119 to 122 | IC(I)I
101 | -32 to -31.6 | CCCCCCC(C)O (stereo not drawn)
102 | -64 to -63 | CCNc1ccccc1

Row | melting point [°C] | SMILES
103 | 44 to 45.5 | CCCC(=O)NN
104 | 155 to 157 | CC(=O)Nc1ccc(Cl)cc1F
105 | -41 to -40.7 | CCCCC(O)CCC (stereo not drawn)
106 | 138 to 139 | Cc1ccc(S(N)(=O)=O)cc1
107 | -34 to -29 | Nc1ccccc1C(F)(F)F
108 | -149 | CCC1CC1
109 | -99 to -98.9 | CCC(C)OC(C)=O (stereo not drawn)
110 | 147 to 148 | CCCCOc1ccc(C(=O)O)cc1
111 | -110 to -109 | CC(C)C(C)C(C)C
112 | 65 to 65.5 | CCCCOc1ccc(O)cc1
113 | 96.3 to 98 | CCOC(=O)C(NC(C)=O)C(=O)OCC
114 | 153 to 156 | CC(C)(c1ccc(O)cc1)c1ccc(O)cc1
115 | -1 to 0 | COc1cccc(N)c1
116 | 12 to 12.5 | Cc1ccc(CN)cc1
117 | 121 to 125 | CC(=O)Oc1ccc(OC(C)=O)cc1
118 | -38.2 to -38 | CC(C)(C)I
119 | 61 to 64.5 | CCOc1ccc(C=O)cc1OC
120 | 57 to 58 | CCOC(=O)CNc1ccccc1
121 | 28 to 29 | CCOc1ccc(I)cc1
122 | 41 to 43 | Cc1cccc(N)n1
123 | 29.5 to 32 | Cc1ccc(Cl)c(N)c1
124 | -31 to -30 | CCCCCCCC1CCCCC1
125 | -100 to -99 | CCC(C)(C)C

Row | melting point [°C] | SMILES
126 | 74 to 75 | CCCOC(=O)c1ccc(N)cc1
127 | -65 to -63 | O=C(OC(=O)C(F)(F)F)C(F)(F)F
128 | 25 to 27 | CCCC#CC(=O)O
129 | 16.5 to 18 | O=C(Cl)c1ccc(Cl)cc1Cl
130 | 11 to 11.2 | Cc1cccc(C)c1I
131 | 43 to 44 | CCc1cc(C(C)(C)C)c(O)c(C(C)(C)C)c1
132 | 110 to 112 | CCNC(=O)NCC
133 | 66 to 67 | CC(C)(C)C1=CC(=O)C=C(C(C)(C)C)C1=O
134 | -33.1 to -33 | CCC(CC)(CC)CC
135 | -183 | CC
136 | -83.2 to -81 | C=CCCCCCCC
137 | 264 to 265 | COC(=O)C1C2CC3c4[nH]c5cc(OC)ccc5c4CCN3CC2CC(OC(=O)c2cc(OC)c(OC)c(OC)c2)C1OC (stereo not drawn)
138 | -65.9 to -65 | CC(C)C=O
139 | 173 to 175 | Nc1cccc(C(=O)O)c1
140 | 79 to 81 | CC(N)=O
141 | 116 to 117 | CCOC(=O)c1ccc(O)cc1
142 | 61 to 62 | CC(C)=NO
143 | 130 to 131 | CC1=CCC(C(C)(C)O)CC1O (stereo not drawn)
144 | 89 to 92 | CC(C)(O)CCC(C)(C)O
145 | -103 to -102 | CCCSCCC
146 | 74 to 76.5 | COc1ccc([N+](=O)[O-])c(OC)c1
147 | 74 to 76 | Cc1ccc(C)c(O)c1
148 | 51 to 54 | CCCCCCCCCCCCCCCCCCCCCCCC

Row | melting point [°C] | SMILES
149 | 7 to 8 | CCOC(=O)c1ccc(OC)cc1
150 | -75.6 to -75 | C=C(C)CCC(=C)C
151 | 54.5 to 56.5 | CC(C)(C)c1ccc(O)c(C(C)(C)C)c1
152 | 59 to 61.5 | Cc1ccc(CO)cc1
153 | 78 to 81.3 | CCC(N)=O
154 | 327 to 330 | CC1=NS(=O)(=O)c2cc(Cl)ccc2N1
155 | 125 to 130 | CC(C)(CO)CO
156 | -73.4 to -73 | CC(=O)OC(C)C
157 | 73 to 74 | Cc1cc(Br)c(C)cc1Br
158 | 128 to 129 | CCCCNC(=O)NS(=O)(=O)c1ccc(C)cc1
159 | -13.5 to -13 | Cc1ccc(Cl)cc1Cl
160 | 146 to 148 | CC(=O)Nc1cccc(O)c1
161 | 53 to 56 | CC(=O)c1ccc2ccccc2c1
162 | -134 | CC=C(C)C
163 | 50 to 54 | CC(C)(C)CO
164 | 116 | CS(=O)(=O)OCCCCOS(C)(=O)=O
165 | 181 to 186 | CN(C)CC(=O)O
166 | -103 | C=C(C)CCCC
167 | 63 to 65 | Cc1nnc(C)s1
168 | -86 to -82.5 | CCO[Si](OCC)(OCC)OCC
